Assay results: patent EP1534716B1, “HETEROBICYCLIC PYRAZOLE DERIVATIVES AS KINASE INHIBITORS” (priority 2002, dated 2004)

What was measured:
Assay type in all cases: biochemical
[1] = biological target: T1, Aurora-2 (Homo sapiens, UniProt O14965); experiment: Inhibition assay of Aurora-2 activity (SPA); details: 10 µM ATP, 60 minutes at room temperature
T1 sequence (O14965 1-403): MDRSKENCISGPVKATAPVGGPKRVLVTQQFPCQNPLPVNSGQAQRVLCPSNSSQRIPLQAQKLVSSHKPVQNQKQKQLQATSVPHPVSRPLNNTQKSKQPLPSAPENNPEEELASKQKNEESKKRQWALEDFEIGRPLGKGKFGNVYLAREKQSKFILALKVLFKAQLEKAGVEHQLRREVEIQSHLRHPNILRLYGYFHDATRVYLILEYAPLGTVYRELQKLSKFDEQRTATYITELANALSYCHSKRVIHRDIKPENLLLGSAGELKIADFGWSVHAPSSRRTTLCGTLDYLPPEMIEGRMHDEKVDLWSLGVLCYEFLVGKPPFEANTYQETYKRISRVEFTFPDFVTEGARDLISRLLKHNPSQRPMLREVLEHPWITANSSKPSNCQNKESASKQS
Protocol: (§1) The inhibiting activity of putative cdk/cyclin inhibitors and the potency of selected compounds is determined through a method of assay based on the use of the SPA technology (Amersham Pharmacia Biotech).
(§2) The assay consists of the transfer of radioactivity labelled phosphate moiety by the kinase to a biotinylated substrate. The resulting 33P-labelled biotinylated product is allowed to bind to streptavidin-coated SPA beads (biotin capacity 130 pmol/mg), and light emitted was measured in a scintillation counter.
(§3) Experimental data were analyzed by the computer program GraphPad Prizm using the four parameter logistic equation: [formula] where x is the logarithm of the inhibitor concentration, y is the response; y starts at bottom and goes to top with a sigmoid shape.
Inhibition assay of Aurora-2 activity
After 60 minutes at room temperature incubation, reaction was stopped and biotinylated peptide captured by adding 100 µl of bead suspension.
Stratification: 100 µl of CsC12 5 M were added to each well and let stand 4 hour before radioactivity was counted in the Top-Count instrument.
IC50 determination: see above

[2] = biological target: Cdc7/dbf4 (Homo sapiens, UniProt O00311); experiment: Inhibition assay of Cdc7/dbf4 activity (SPA); details: 2 µM ATP, 60 minutes at 37°C
Protocol: Inhibition assay of Cdc7/dbf4 activity
The inhibition assay of Cdc7/dbf4 activity is performed according to the following protocol.
The Biotin-MCM2 substrate is trans-phosphorylated by the Cdc7/Dbf4 complex in the presence of ATP traced with γ^33-ATP. The phosphorylated Biotin-MCM2 substrate is then captured by Streptavidin-coated SPA beads and the extent of phosphorylation evaluated by β counting.
The inhibition assay of Cdc7/dbf4 activity was performed in 96 wells plate according to the following protocol.
To each well of the plate were added: • 10 µl substrate (biotinylated MCM2, 6 µM final concentration) • 10 µl enzyme (Cdc7/Dbf4, 17.9 nM final concentration) • 10 µl test compound (12 increasing concentrations in the nM to µM range to generate a dose-response curve) • 10 µl of a mixture of cold ATP (2 µM final concentration) and radioactive ATP (1/5000 molar ratio with cold ATP) was then used to start the reaction which was allowed to take place at 37°C.
Substrate, enzyme and ATP were diluted in 50 mM HEPES pH 7.9 containing 15 mM MgCl2, 2 mM DTT, 3 µM NaVO3, 2mM glycerophosphate and 0.2mg/ml BSA. The solvent for test compounds also contained 10% DMSO.
After incubation for 60 minutes, the reaction was stopped by adding to each well 100 µl of PBS pH 7.4 containing 50 mM EDTA, 1 mM cold ATP, 0.1% Triton X100 and 10 mg/ml streptavidin coated SPA beads.
After 20 min incubation, 110 µL of suspension were withdrawn and transferred into 96-well OPTIPLATEs containing 100 µl of 5M CsCl. After 4 hours, the plates were read for 2 min in a Packard TOP-Count radioactivity reader.
IC50 determination: see above.

[3] = biological target: PAK4 (Homo sapiens, UniProt O96013); experiment: PAK4 inhibition
[4] = biological target: cdk2/Cyclin A (Homo sapiens, UniProt P24941); experiment: Inhibition assay of cdk2/Cyclin A activity (SPA); details: 10 µM ATP, 60 min at room temperature
Protocol: as §1, §2
Inhibition assay of cdk2/Cyclin A activity
Kinase reaction: 4 µM in house biotinylated histone H1 (Sigma # H-5505) substrate, 10 µM ATP (0.1 microCi P^33γ-ATP), 1.1 nM Cyclin A/CDK2 complex, inhibitor in a final volume of 30 µl buffer (TRIS HCl 10 mM pH 7.5, MgCl2 10 mM, DTT 7.5 mM + 0.2 mg/ml BSA) were added to each well of a 96 U bottom. After incubation for 60 min at room temperature, the reaction was stopped by addition of 100 µl PBS buffer containing 32 mM EDTA, 500 µM cold ATP, 0.1% Triton X100 and 10mg/ml streptavidin coated SPA beads. After 20 min incubation, 110 µL of suspension were withdrawn and transferred into 96-well OPTIPLATEs containing 100 µl of 5M CsCl. After 4 hours, the plates were read for 2 min in a Packard TOP-Count radioactivity reader.
as §3

Sequence of Cdc7/dbf4 (O00311 whole entry, species assumed): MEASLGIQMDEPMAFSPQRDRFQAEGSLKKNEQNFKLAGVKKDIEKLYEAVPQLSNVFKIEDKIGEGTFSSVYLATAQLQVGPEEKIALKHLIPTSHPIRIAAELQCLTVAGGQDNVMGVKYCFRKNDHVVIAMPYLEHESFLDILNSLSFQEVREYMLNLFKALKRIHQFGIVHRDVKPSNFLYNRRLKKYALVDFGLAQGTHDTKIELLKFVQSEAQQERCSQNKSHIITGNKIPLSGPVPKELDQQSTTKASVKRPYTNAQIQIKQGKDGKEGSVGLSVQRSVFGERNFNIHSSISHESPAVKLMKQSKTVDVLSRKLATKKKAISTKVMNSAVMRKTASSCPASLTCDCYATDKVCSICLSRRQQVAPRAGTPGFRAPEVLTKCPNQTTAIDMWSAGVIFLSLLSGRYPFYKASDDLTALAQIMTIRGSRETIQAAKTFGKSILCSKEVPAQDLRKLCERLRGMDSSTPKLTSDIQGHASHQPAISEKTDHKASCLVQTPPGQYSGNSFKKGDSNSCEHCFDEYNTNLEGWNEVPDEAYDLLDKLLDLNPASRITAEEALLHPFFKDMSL
Sequence of Cdc7/dbf4 (Q9UBU7 whole entry partner, species assumed): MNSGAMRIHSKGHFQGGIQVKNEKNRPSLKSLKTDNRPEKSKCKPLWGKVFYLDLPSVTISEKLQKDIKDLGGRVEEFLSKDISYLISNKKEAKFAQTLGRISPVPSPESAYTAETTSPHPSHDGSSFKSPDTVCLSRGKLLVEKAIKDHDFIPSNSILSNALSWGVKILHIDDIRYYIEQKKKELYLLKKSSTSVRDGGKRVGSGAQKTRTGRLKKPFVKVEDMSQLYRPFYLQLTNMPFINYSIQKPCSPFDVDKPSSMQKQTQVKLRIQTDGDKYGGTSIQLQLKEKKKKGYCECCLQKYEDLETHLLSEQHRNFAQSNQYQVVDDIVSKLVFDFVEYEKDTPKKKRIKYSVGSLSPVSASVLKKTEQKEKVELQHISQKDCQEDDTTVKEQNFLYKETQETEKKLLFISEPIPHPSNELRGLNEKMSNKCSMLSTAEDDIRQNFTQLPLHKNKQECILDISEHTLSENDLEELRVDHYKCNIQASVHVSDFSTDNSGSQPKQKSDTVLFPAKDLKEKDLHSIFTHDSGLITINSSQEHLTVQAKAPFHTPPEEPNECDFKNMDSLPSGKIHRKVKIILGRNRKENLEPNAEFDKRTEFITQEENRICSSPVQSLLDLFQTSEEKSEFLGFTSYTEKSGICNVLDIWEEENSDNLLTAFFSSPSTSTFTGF
Sequence of PAK4 (O96013 whole entry, species assumed): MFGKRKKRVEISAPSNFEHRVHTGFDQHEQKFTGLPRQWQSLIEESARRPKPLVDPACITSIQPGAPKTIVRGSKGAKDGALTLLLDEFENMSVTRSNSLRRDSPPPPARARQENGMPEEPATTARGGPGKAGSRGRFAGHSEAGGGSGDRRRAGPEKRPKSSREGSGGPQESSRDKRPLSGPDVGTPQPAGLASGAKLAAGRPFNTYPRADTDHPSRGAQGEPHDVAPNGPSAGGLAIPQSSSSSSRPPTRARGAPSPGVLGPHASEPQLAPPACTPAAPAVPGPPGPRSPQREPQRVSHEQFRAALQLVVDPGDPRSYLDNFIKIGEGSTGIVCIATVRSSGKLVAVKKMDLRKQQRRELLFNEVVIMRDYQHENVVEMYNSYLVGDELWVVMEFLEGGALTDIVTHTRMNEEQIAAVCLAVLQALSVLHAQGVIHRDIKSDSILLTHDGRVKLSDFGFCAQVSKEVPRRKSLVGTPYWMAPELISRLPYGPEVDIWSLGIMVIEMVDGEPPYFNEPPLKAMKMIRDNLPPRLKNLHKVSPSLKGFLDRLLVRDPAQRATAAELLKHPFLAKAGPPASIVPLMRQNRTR

| Compound | IC50 [1] | IC50 [2] | IC50 [3] | IC50 [4] |
| --- | --- | --- | --- | --- |
| COC(=O)c1cc2[nH]nc(NC(=O)c3ccc(N4CCOCC4)cc3)c2s1 [Compound 52, methyl 3-[(4-morpholin-4-ylbenzoyl)amino]-1H-thieno[3,2-c]pyrazole-5-carboxylate] | < 0.1 µM | < 1 µM | < 0.5 µM |  |
| O=C(Nc1n[nH]c2cc(C(=O)O)sc12)c1ccc(N2CCOCC2)cc1 [Compound 57, 3-[(4-morpholin-4-ylbenzoyl)amino]-1H-thieno[3,2-c]pyrazole-5-carboxylic acid] | < 0.1 µM | < 1 µM |  | < 0.5 µM |
| CN1CCN(c2ccc(C(=O)Nc3n[nH]c4cc(C(=O)NCc5ccc(F)cc5)sc34)cc2)CC1 [Compound 95, N-(4-fluorobenzyl)-3-{[4-(4-methylpiperazin-1-yl)benzoyl]amino}-1H-thieno[3,2-c]pyrazole-5-carboxamide] | < 0.1 µM | < 1 µM | < 0.5 µM |  |
| CN1CCN(c2ccc(C(=O)Nc3n[nH]c4cc(C(=O)NCc5ccccc5F)sc34)cc2)CC1 [Compound 101, N-(2-fluorobenzyl)-3-{[4-(4-methylpiperazin-1-yl)benzoyl]amino}-1H-thieno[3,2-c]pyrazole-5-carboxamide] | < 0.1 µM | < 1 µM | < 0.5 µM |  |
| CN1CCN(c2ccc(C(=O)Nc3n[nH]c4cc(C(=O)NCc5ccc(F)cc5F)sc34)cc2)CC1 [Compound 102, N-(2,4-difluorobenzyl)-3-{[4-(4-methylpiperazin-1-yl)benzoyl]amino}-1H-thieno[3,2-c]pyrazole-5-carboxamide] | < 0.1 µM | < 1 µM | < 0.5 µM |  |
| CN1CCN(c2ccc(C(=O)Nc3n[nH]c4cc(C(=O)NCc5cccn5C)sc34)cc2)CC1 [Compound 123, 3-{[4-(4-methylpiperazin-1-yl)benzoyl]amino}-N-[(1-methyl-1H-pyrrol-2-yl)methyl]-1H-thieno[3,2-c]pyrazole-5-carboxamide] | < 0.1 µM | < 1 µM |  |  |
| CN1CCN(c2ccc(C(=O)Nc3n[nH]c4cc(C(=O)NCc5ccoc5)sc34)cc2)CC1 [Compound 124, N-(3-furylmethyl)-3-{[4-(4-methylpiperazin-1-yl)benzoyl]amino}-1H-thieno[3,2-c]pyrazole-5-carboxamide] | < 0.1 µM | < 1 µM |  | < 0.5 µM |
| O=C(Nc1n[nH]c2cc(C(=O)NCc3ccc(F)cc3)sc12)c1ccc(N2CCOCC2)cc1 [Compound 133, N-(4-fluorobenzyl)-3-[(4-morpholin-4-ylbenzoyl)amino]-1H-thieno[3,2-c]pyrazole-5-carboxamide] | < 0.1 µM |  | < 0.5 µM |  |
| O=C(Nc1n[nH]c2cc(C(=O)O)oc12)c1ccc(N2CCOCC2)cc1 [Compound 161, 3-[(4-morpholin-4-ylbenzoyl)amino]-1H-furo[3,2-c]pyrazole-5-carboxylic acid] | < 0.1 µM | < 1 µM |  | < 0.5 µM |
| CN1CCN(c2ccc(C(=O)Nc3n[nH]c4cc(C(=O)O)oc34)cc2)CC1 [Compound 162, 3-{[4-(4-methylpiperazin-1-yl)benzoyl]amino}-1H-furo[3,2-c]pyrazole-5-carboxylic acid] | < 0.1 µM | < 1 µM |  |  |
| O=C(Nc1n[nH]c2cc(C(=O)O)oc12)c1ccc(F)cc1 [Compound 163, 3-[(4-fluorobenzoyl)amino]-1H-furo[3,2-c]pyrazole-5-carboxylic acid] | < 0.1 µM |  | < 0.5 µM |  |
| CCC(NC(=O)c1cc2[nH]nc(NC(=O)c3ccc(N4CCOCC4)cc3)c2o1)c1ccccc1 (centres unmarked) [Compound 164, 3-[(4-morpholin-4-ylbenzoyl)amino]-N-[-1-phenylpropyl]-1H-furo[3,2-c]pyrazole-5-carboxamide] | < 0.1 µM |  | < 0.5 µM | < 0.5 µM |
| CCC(NC(=O)c1cc2[nH]nc(NC(=O)c3ccc(N4CCN(C)CC4)cc3)c2o1)c1ccccc1 (centres unmarked) [Compound 165, 3-{[4-(4-methylpiperazin-1-yl)benzoyl]amino}-N-[1-phenylpropyl]-1H-furo[3,2-c]pyrazole-5-carboxamide] | < 0.1 µM | < 1 µM |  | < 0.5 µM |
